Laboratory results as given in PubChem BioAssay AID328 (DTP/NCI, 2004).
Where “and” joins values, the source holds several entries; their conditions need not be identical. Identical values can stand only once. Toxic doses and inconclusive results are not listed.

Test system: BDF1 mice, P388 leukemia ip, median survival T/C
Experiment: NCI In Vivo Anticancer Drug Screen. Data for tumor model P388 Leukemia (intraperitoneal) in B6D2F1 (BDF1) mice
Conditions: endpoint: median survival time, higher = longer survival
How it was run: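 In tumour-bearing mice, survival after compound treatment is set against the vehicle group and given as a quotient.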

[1] = dose: 50.0 mg/kg/injection, schedule: Q04DX003 (ip), vehicle: saline with Tween-80
[2] = dose: 100.0 mg/kg/injection, schedule: Q04DX003 (ip), vehicle: saline with Tween-80
[3] = dose: 12.5 mg/kg/injection, schedule: Q01DX009 (ip), vehicle: water
[4] = dose: 25.0 mg/kg/injection, schedule: Q01DX009 (ip), vehicle: water
[5] = dose: 50.0 mg/kg/injection, schedule: Q01DX009 (ip), vehicle: water
[6] = dose: 50.0 mg/kg/injection, schedule: Q04DX003 (ip), vehicle: water
[7] = dose: 100.0 mg/kg/injection, schedule: Q04DX003 (ip), vehicle: water
[8] = dose: 200.0 mg/kg/injection, schedule: Q04DX003 (ip), vehicle: water
[9] = dose: 400.0 mg/kg/injection, schedule: Q04DX003 (ip), vehicle: water
[10] = dose: 100.0 mg/kg/injection, schedule: Q04DX003 (ip), vehicle: Klucel (hydroxypropylcellulose) (HPC)
[11] = dose: 200.0 mg/kg/injection, schedule: Q04DX003 (ip), vehicle: Klucel (hydroxypropylcellulose) (HPC)
[12] = dose: 200.0 mg/kg/injection, schedule: Q04DX003 (ip), vehicle: saline with Tween-80
[13] = dose: 25.0 mg/kg/injection, schedule: Q04DX003 (ip), vehicle: water

`OCc1ccc(Cl)c(Cl)c1` was tested, and the T/C (dose: 100.0 mg/kg/injection, schedule: Q04DX003 (ip), vehicle: other) was 104 % of control, the T/C (dose: 200.0 mg/kg/injection, schedule: Q04DX003 (ip), vehicle: other) was 104 % of control and the T/C (dose: 400.0 mg/kg/injection, schedule: Q04DX003 (ip), vehicle: other) was 100 % of control.
For `O=C1CC(c2ccc(OCN(CCCl)CCCl)cc2)CC(=O)C1CN(CCCl)CCCl` (centres undefined), the T/C (dose: 0.5 mg/kg/injection, schedule: Q01DX009 (ip), vehicle: Klucel (hydroxypropylcellulose) (HPC)) was 124 % of control and the T/C (dose: 4.0 mg/kg/injection, schedule: Q01DX009 (ip), vehicle: Klucel (hydroxypropylcellulose) (HPC)) was 160 % of control.
In the case of `O=C1C=CC(=O)C(c2ccccc2)=C1`, the T/C (dose: 12.5 mg/kg/injection, schedule: Q01DX001 (ip), vehicle: Klucel (hydroxypropylcellulose) (HPC)) was 110 % of control, the T/C (dose: 25.0 mg/kg/injection, schedule: Q01DX001 (ip), vehicle: Klucel (hydroxypropylcellulose) (HPC)) was 100 % of control and the T/C (dose: 50.0 mg/kg/injection, schedule: Q01DX001 (ip), vehicle: Klucel (hydroxypropylcellulose) (HPC)) was 100 % of control.
In the case of `CCCCCCCCN(c1ccc(I)cc1)S(=O)(=O)c1ccc(C)cc1`, the T/C [1] was 111 % of control and the T/C [2] was 111 % of control.
In the case of `COc1ccc(C2=CC(c3ccc4c(c3)OCO4)c3c(c4ccccc4oc3=O)O2)cc1OC` (centres undefined), the T/C [3] was 96 % of control, the T/C [4] was 106 % of control and the T/C [5] was 102 % of control. For the same compound, the T/C [6] was 101 % of control, the T/C (dose: 100.0 mg/kg/injection, schedule: Q01DX009 (ip), vehicle: water) was 93 % of control and the T/C [7] was 110 % of control. For the same compound, the T/C [8] was 94 % of control and the T/C [9] was 94 % of control.
`COc1ccccc1NC(=O)Oc1c(C(C)C)cccc1C(C)C` was tested, and the T/C [10] was 95 % of control, the T/C [11] was 87 % of control and the T/C (dose: 400.0 mg/kg/injection, schedule: Q04DX003 (ip), vehicle: Klucel (hydroxypropylcellulose) (HPC)) was 100 % of control.
For `NN(c1ccccc1)c1ccc2ccccc2c1`, the T/C (dose: 50.0 mg/kg/injection, schedule: Q04DX003 (ip), vehicle: Klucel (hydroxypropylcellulose) (HPC)) was 95 % of control, the T/C [10] was 104 % of control and the T/C [11] was 109 % of control.
In the case of `CCCCn1cnc2c(=S)nc(N)[nH]c21`, the T/C (dose: 12.5 mg/kg/injection, schedule: Q01DX009 (ip), vehicle: saline with Tween-80) was 109 % of control, the T/C (dose: 25.0 mg/kg/injection, schedule: Q01DX009 (ip), vehicle: saline with Tween-80) was 118 % of control and the T/C (dose: 33.0 mg/kg/injection, schedule: Q04DX003 (ip), vehicle: saline with Tween-80) was 100 % of control and 118 % of control. For the same compound, the T/C (dose: 50.0 mg/kg/injection, schedule: Q01DX009 (ip), vehicle: saline with Tween-80) was 118 % of control, the T/C [1] was 108 % of control and 118 % of control and the T/C (dose: 75.0 mg/kg/injection, schedule: Q04DX003 (ip), vehicle: saline with Tween-80) was 122 % of control.
`C[C@]12C=CC(=O)C=C1CC[C@H]1[C@@H]3CCC(=O)O[C@@]3(C)CC(=O)[C@@]12F` was tested, and the T/C (dose: 100.0 mg/kg/injection, schedule: Q01DX009 (ip), vehicle: saline with Tween-80) was 100 % of control, the T/C (dose: 200.0 mg/kg/injection, schedule: Q01DX009 (ip), vehicle: saline with Tween-80) was 100 % of control and the T/C (dose: 400.0 mg/kg/injection, schedule: Q01DX009 (ip), vehicle: saline with Tween-80) was 100 % of control.
In the case of `CCN(C(C)(C)C(SSSC(c1ccc(Cl)cc1)C(C)(C)N(CC)S(C)(=O)=O)c1ccc(Cl)cc1)S(C)(=O)=O` (centres undefined), the T/C [1] was 109 % of control, the T/C [2] was 122 % of control and the T/C [12] was 122 % of control.
`Nc1ccn(CC(=O)N2CCOCC2)c(=O)n1` was tested, and the T/C [13] was 106 % of control, the T/C [6] was 103 % of control and the T/C [7] was 89 % of control. The T/C [8] was 103 % of control and the T/C [9] was 94 % of control.
In the case of `N#CCC(=O)Cc1ccccc1[N+](=O)[O-]`, the T/C (dose: 400.0 mg/kg/injection, schedule: Q01DX001 (ip), vehicle: saline sonified) was 100 % of control.
In the case of `C[n+]1c2ccccc2c(Nc2ccc(NS(=O)(=O)CCCCN=C(N)N)cc2)c2ccc(N)cc21`, the T/C (dose: 3.0 mg/kg/injection, schedule: Q01DX009 (ip), vehicle: water) was 205 % of control and the T/C (dose: 6.0 mg/kg/injection, schedule: Q01DX009 (ip), vehicle: water) was 116 % of control.
With `COc1ccc(CCN2C(=O)CSC2=S)cc1OC` the T/C (dose: 100.0 mg/kg/injection, schedule: Q01DX001 (ip), vehicle: Klucel (hydroxypropylcellulose) (HPC)) was 90 % of control, the T/C (dose: 200.0 mg/kg/injection, schedule: Q01DX001 (ip), vehicle: Klucel (hydroxypropylcellulose) (HPC)) was 100 % of control and the T/C (dose: 400.0 mg/kg/injection, schedule: Q01DX001 (ip), vehicle: Klucel (hydroxypropylcellulose) (HPC)) was 90 % of control.
In the case of `CN(CCS)Cc1ccccc1`, the T/C (dose: 25.0 mg/kg/injection, schedule: Q04DX003 (ip), vehicle: saline with Tween-80) was 100 % of control, the T/C [1] was 104 % of control and the T/C [2] was 100 % of control.
For `O=C(Nc1ccc(Cl)cc1C(=O)c1ccccn1)c1ccccc1`, the T/C [12] was 120 % of control and the T/C (dose: 400.0 mg/kg/injection, schedule: Q04DX003 (ip), vehicle: saline with Tween-80) was 110 % of control.
For `CCN(CC)CCCC(C)NC/C=C/CNC(C)CCCN(CC)CC` (centres undefined), the T/C (dose: 0.78 mg/kg/injection, schedule: Q01DX009 (ip), vehicle: water) was 99 % of control, the T/C (dose: 1.56 mg/kg/injection, schedule: Q01DX009 (ip), vehicle: water) was 91 % of control and the T/C (dose: 3.12 mg/kg/injection, schedule: Q01DX009 (ip), vehicle: water) was 91 % of control. The T/C [3] was 86 % of control, the T/C [4] was 91 % of control and the T/C [5] was 99 % of control.
`NC(=O)CC(N)c1nn[nH]n1` (centres undefined) was tested, and the T/C (dose: 100.0 mg/kg/injection, schedule: Q01DX009 (ip), vehicle: saline) was 95 % of control, the T/C (dose: 200.0 mg/kg/injection, schedule: Q01DX009 (ip), vehicle: saline) was 100 % of control and the T/C (dose: 400.0 mg/kg/injection, schedule: Q01DX009 (ip), vehicle: saline) was 90 % of control.
In the case of `O=NN(c1ccccc1)c1ccc(N(N=O)c2ccccc2)cc1`, the T/C (dose: 50.0 mg/kg/injection, schedule: Q01DX009 (ip), vehicle: Klucel (hydroxypropylcellulose) (HPC)) was 100 % of control, the T/C (dose: 100.0 mg/kg/injection, schedule: Q01DX009 (ip), vehicle: Klucel (hydroxypropylcellulose) (HPC)) was 105 % of control and the T/C (dose: 200.0 mg/kg/injection, schedule: Q01DX009 (ip), vehicle: Klucel (hydroxypropylcellulose) (HPC)) was 110 % of control.
For `C[n+]1cc2ccccc2c2ccccc21`, the T/C [3] was 95 % of control and 109 % of control, the T/C (dose: 12.5 mg/kg/injection, schedule: Q04DX003 (ip), vehicle: water) was 105 % of control and the T/C (dose: 15.0 mg/kg/injection, schedule: Q01DX009 (ip), vehicle: water) was 108 % of control. The T/C [4] was 101 % of control and 115 % of control and the T/C [13] was 114 % of control.
